Data set [1] has as its system U-87 MG cells. The data set is described as follows: MTT cytotoxicity test of PTX and NPC2-PTX (2D). The class given is cell-based, human. How it is done:
The volume of seeding and treatment is maintained at 150 μL per well and each condition is carried out with a conventional incubation at 37° C. […] This test uses as reagent 3-(4,5-Dimethylthiazol-2-yl)-2,5-Diphenyltetrazolium Bromide (MTT), which is converted into formazan (crystal violet) by living cells. The latter absorbent at the wavelength of 600 nm is detectable by an absorbance measurement.
(§1) As soon as the formazan crystals are visible in the cells under a light field microscope, the medium is replaced by 150 μl of dimethylsulfoxide (DMSO). The cells are then lysed, the formazan crystals dissolved, and the absorbance is measured with a Multiskan spectrophotometer (Ascent, Labtec Systems with a filter at 600 nm.
(§2) The percentage of viability is obtained by comparing the absorbance value of the treated cells with the absorbance value of the untreated control cells, which is considered as a reference and equivalent to 100% of viability. The standard deviation is calculated from 3 independent experiments.
(In general: Formazan colour is commonly taken as a measure of viable cells.)

The test system of data set [2] is microtubular network in U-87-MG and HMEC-1 cells. The data set is described as follows: Indirect immunofluorescence of tubulin, comparison with PTX (Example 24). It counts as cell-based, human. Conditions: 10, 50 and 100 nM, 6 h of treatment. On the procedure: The U-87-MG and HMEC-1 cells are seeded on Lab-Tek® culture chambers (Nunc). […] After 6 h of treatment, the medium is replaced by a solution of ice-cold methanol making it possible to fix and permeabilize the cells. […] The labeling of the nucleus is carried out with a solution of DAPI or 4,6-diamidino-2-phenylindole (0.25 μg/ml; Sigma) for 2 min. The blade is finally mounted with Prolong® (Invitrogen) antifading. The observation is carried out with an epifluorescence microscope (Leica DM-IRBE) coupled with a digital camera (Princeton Instruments; CCD camera coolsnap FX).

Data set [3] has as its system U-87 MG spheroids. Kind of data set: 3D culture spheroid size by optical microscopy. The class given is cell-based, human. On the procedure: Spheroids (cells in 3D culture) help to better represent the tumor environment. They are composed of necrotic cells in their center and proliferating cells in the periphery. […] The cells are maintained at 37° C. and 5% of CO2 and 10 μl of fresh medium are added every two days to all the wells (controls and treated). […] Before treatment and then every two days, the spheroids are observed under an optical microscope coupled to a camera (Nikon ECLIPSE TS100), at magnification*4.;

For data set [4], the system named is SK-N-SH cells. Kind of data set: MTT cytotoxicity test of PTX and NPC2-PTX (2D). The class given is cell-based. The note with it: Homo sapiens, 72 h. On the procedure: (§3) The volume of seeding and treatment is maintained at 150 μL per well and each condition is carried out with a conventional incubation at 37° C. A cell viability test is carried out by an MTT test after 72 h of treatment. This test uses as reagent 3-(4,5-Dimethylthiazol-2-yl)-2,5-Diphenyltetrazolium Bromide (MTT), which is converted into formazan (crystal violet) by living cells. The latter absorbent at the wavelength of 600 nm is detectable by an absorbance measurement.
as §1, §2

In data set [5] the test system is HMEC-1 cells. The data set is described as follows: MTT cytotoxicity test of PTX and NPC2-PTX (2D). It counts as cell-based. The note with it: Homo sapiens, HMEC-1, 72 h. How it is done:
as §3, §1, §2

The subject of data set [6] is U-87 MG spheroids. The data set is described as follows: 3D culture spheroid viability by Alamar Blue test. It counts as cell-based, human. The note with it: 2.8 times the IC50, Alamar Blue. How it is done: Spheroids (cells in 3D culture) help to better represent the tumor environment. They are composed of necrotic cells in their center and proliferating cells in the periphery. […] The cells are maintained at 37° C. and 5% of CO2 and 10 μl of fresh medium are added every two days to all the wells (controls and treated). […] This measurement is done in one step and uses a reagent based on resazurin, which is reduced by living cells. The reduced compound (=resofurin) is detectable by fluorescence (λex=584 nm and λem=620 nm) and the signal measured is proportional to the number of living cells. Once the above treatment has been set up, 10 μL of Alamar Blue are added to each well 7 days or 14 days after treatment and the cells are incubated 12 h before the fluorescence measurement. The data are obtained by reading the fluorescence with POLARstar Omega (BMG LABETCH) after excitation at 584 nm and reading the emission at 620 nm.
On the technique in general: Alamar Blue is a resazurin reagent that responds to reducing activity.

What is called IC50 is the point on the concentration scale where inhibition reaches its midpoint. Higher therefore signals weaker potency in that assay. With `CC(=O)O[C@H]1C(=O)[C@@]2(C)[C@H]([C@H](OC(=O)c3ccccc3)[C@]3(O)C[C@H](OC(=O)[C@H](O)[C@@H](NC(=O)c4ccccc4)c4ccccc4)C(C)=C1C3(C)C)[C@]1(OC(C)=O)CO[C@@H]1C[C@@H]2O` [PTX, paclitaxel], in data set [1] (2.8 times the IC50), the “inhibition of cell viability in 2D” value was 70%. Moreover, the IC50 stood at 9.2 ± 1.2 nM in data set [1] (Homo sapiens, U-87 MG, 72 h); 40.5 ± 7.8 nM in data set [4]; 5.7 ± 2 nM in data set [5]. Further, the “effects on microtubular network and cell shape” value in data set [2] is recorded as “the microtubular network is disturbed”. Moreover, the “diameter of the spheroid at day 14” value was 757+/−22 μm in data set [3] (2.8 times IC50 (PTX 25 nM, NPC2-PTX 70 nM)); 389+/−33 μm in data set [3] (4 times the IC50 (PTX 40 nM, NPC2-PTX 100 nM)); 800+/−11 μm in data set [3] (IC50 calculated in 2D (PTX 9 nM, NPC2-PTX 25 nM)). The “decrease / inhibition of cell viability in 3D” value in data set [6] is reported as 10%.

The values above are taken from US20200384124A1, “VECTOR FOR PHARMACOLOGICALLY ACTIVE MATER-INSOLUBLE MOLECULES, AND PROCESS OF PREPARING SAME” (priority 2017, published 2020).
